The values that follow come from patent publication US5571524A, “Agent for curing ischemic myocardial disease” (Unitika Ltd., priority 1994, dated 1996).

Each structure is given as a SMILES string.

Common to all, as to format: in vivo
In test [1] the test system is Mongrel dogs. Put plainly: Coronary blood flow increase effect, nonischemic condition. The conditions noted are these: for Coronary blood flow: 8-SPT and/or L-NAME alone, before Ap4A, N = 1 - 2. The method, then: (§1) Mongrel dogs weighing 18-22 kg were anesthetized with pentobarbital sodium (30 mg/kg). The trachea was intubated, and the dog was ventilated with room air with oxygen. The chest was opened through the left fifth intercostal space, and the heart was suspended in a pericardial cradle. The left anterior descending coronary artery was cannulated and perfused with blood via the carotid artery through an extracorporeal bypass tube after heparinization (500 units/kg). Coronary blood flow (CBF) was measured with an electromagnetic flow probe attached to the bypass tube, and coronary perfusion pressure (CPP) was monitored at the tip of the coronary arterial cannula. A small, short collecting tube was cannulated into a small coronary vein near the center of the perfused area to sample coronary venous blood. The drained venous blood was collected in a reservoir placed at the level of the left atrium. A high fidelity of left ventricular pressure and its first derivative were measured by a micromanometer (model P-5, Konigsberg Instruments, Inc., Pasadena, Calif.) placed in the left ventricular cavity through the apex. A pair of ultrasonic crystals was placed in the center of the perfused area about 1 cm apart to measure myocardial segment length with an ultrasonic dimension gauge (5 MHz, Schuessler, Cardiff by the Sea, Calif.). End-diastolic length (EDL) was determined at the R wave of the electrocardiogram, and end-systolic length (ESL) was determined at the minimal dP/dt. Fractional shortening was calculated by (EDL-ESL)/EDL as an index of myocardial contractility of the perfused area.
After stabilization, a physiological saline solution […], with the dosage thereof increased to 0.5, 1, 2, 4 and 8 μg/kg/min, and the changes in coronary blood flow were measured in order to assess the coronary blood flow increase effect of Ap4A.
8-sulfophenyltheophylline (hereinafter referred to as 8-SPT) serving as adenosine P1 receptor antagonist with a dose of 25 μg/kg/min was tested.
The above test was also repeated by replacing 8-SPT with N^G -nitro-L-arginine methyl ester (hereinafter referred to as L-NAME) serving as an endothelial-cell-induced nitric oxide (NO) synthesis inhibitor with a dose of 3 μg/kg/min(ic).
The above test was then repeated using 8-SPT and L-NAME in combination.

The test system of test [2] is Mongrel dogs. Description: Amelioration of myocardial ischemia: coronary blood flow, fractional shortening and perfusion pressure during factitious 1/3 blood flow. Particulars: for Myocardial fractional shortening / Coronary blood flow / Coronary perfusion pressure: ischemia (1/3 blood flow); for Myocardial fractional shortening: control 26.9, 1/3 control 5.3; for Coronary blood flow: control 91.3, 1/3 control 21.2; for Coronary perfusion pressure: control 93.0, 1/3 control 57.0. Here is the method: as §1
(§2) After stabilization, CPP was decreased with partial occlusion of the bypass tube to the left anterior descending coronary artery such that CBF decreased to one third of the control flow. The low CPP was maintained during this test.
(§3) Blood sampling from coronary veins and coronary arteries was conducted. Then the intracoronary administration of Ap4A was stopped. The lowered coronary perfusion pressure was further maintained for 10 minutes.
(§4) The above test was repeated by replacing Ap4A with adenosine with the dosage thereof being changed to 4, 8 and 16 μg/kg/min.

The subject of test [3] is Mongrel dogs. Description: Lactate extraction ratio and pH of venous blood during ischemia. The conditions noted are these: for pH of venous blood / Lactate extraction ratio: ischemia (1/3 blood flow); for pH of venous blood: control 7.46, 1/3 control 7.23; for Lactate extraction ratio: control 26.5, 1/3 control -67.9. The method, then: as §1
Namely, the lactate extraction ratio was obtained by coronary arteriovenous difference in lactate concentration multiplied by 100 and divided by arterial lactate concentration.
as §2, §3, §4
As mentioned previously, in the above-mentioned experimental systems, lactate extraction ratio and pH of venous blood were measured at the time of the intracoronary administration of Ap4A and also at the time of the intracoronary administration of adenosine.

The mark [4] stands for this setting: adenosine 4 μg/kg/min intracoronary.
[5] abbreviates: adenosine 8 μg/kg/min intracoronary.
[6] abbreviates: adenosine 16 μg/kg/min intracoronary.

As to `COC(=O)[C@@H](N)CCCNC(=N)N[N+](=O)[O-]` [L-NAME, N^G -nitro-L-arginine methyl ester, reference compound], the Coronary blood flow with Mongrel dogs [1] was 90.3 ml/100 g/min.

Take `Cn1c(=O)c2[nH]c(-c3ccc(S(=O)(=O)O)cc3)nc2n(C)c1=O` [8-SPT, 8-sulfophenyltheophylline, reference compound]: the “inhibition of the effect of adenosine” value in the test on Mongrel dogs [1] (8-SPT 25 μg/kg/min) is given as “completely inhibited”. In the test with Mongrel dogs [1], the Coronary blood flow amounted to 93.7 ml/100 g/min.

On to `Nc1ncnc2c1ncn2[C@@H]1O[C@H](CO)[C@@H](O)[C@H]1O` [Adenosine, adenosine], for which the Myocardial fractional shortening in the test on Mongrel dogs [2] (adenosine 4 μg/kg/min) came to 5.9%; in the test on Mongrel dogs [2] (adenosine 8 μg/kg/min), 3.9%; in the test with Mongrel dogs [2] (adenosine 16 μg/kg/min) it was 5.3%. Also, the Coronary blood flow in the test with Mongrel dogs [2] (adenosine 4 μg/kg/min), in the test with Mongrel dogs [2] (adenosine 8 μg/kg/min) and in the test on Mongrel dogs [2] (adenosine 16 μg/kg/min) was 18.2 ml/100 g/min each time. In addition, the Coronary perfusion pressure in the test on Mongrel dogs [2] (adenosine 4 μg/kg/min), in the test with Mongrel dogs [2] (adenosine 8 μg/kg/min) and with Mongrel dogs [2] (adenosine 16 μg/kg/min) was 56.0 mmHg each time. Moreover, the “changes in coronary blood flow and myocardial fractional shortening” value with Mongrel dogs [2] (ischemia, adenosine 4, 8 and 16 μg/kg/min) is “no substantial changes in coronary blood flow and myocardial fractional shortening”. Also, in the test with Mongrel dogs [2] (mongrel dogs in a state of excessive ischemia), the “amelioration effect on myocardial ischemia” value is on record as “unaffected”. Besides, in the test on Mongrel dogs [3] (ischemia), the “amelioration of lactate extraction ratio and pH” value is “no such amelioration effects”. Besides, the “pH of venous blood” value in the test on Mongrel dogs [3] (setting [4]) is on record as 7.19; with Mongrel dogs [3] (setting [5]), 7.25; with Mongrel dogs [3] (setting [6]) it was 7.22. Moreover, the Lactate extraction ratio was -73.2% in the test on Mongrel dogs [3] (setting [4]), -69.8% in the test with Mongrel dogs [3] (setting [5]) and -73.2% with Mongrel dogs [3] (setting [6]).
